Paper PMC12454493, “Insight on novel sulfamoylphenyl pyrazole derivatives as anticancer carbonic anhydrase inhibitors” (Molecular Diversity, 2024)

What was measured:
NCI-H322M = test: NCI-60 one-dose SRB screen (Non-Small Cell Lung Cancer); type: cell-based; conditions: Homo sapiens, single dose 10 µM, 48 h, read-out: Growth inhibition percent (GI %)
EKVX = test: as above; type: cell-based; conditions: Homo sapiens, single dose 10 µM, 48 h, read-out: Growth inhibition percent (GI %)
NCI-H522 = test: as above; type: cell-based; conditions: Homo sapiens, single dose 10 µM, 48 h, read-out: Growth inhibition percent (GI %)
NCI-H23 = test: as above; type: cell-based; conditions: Homo sapiens, single dose 10 µM, 48 h, read-out: Growth inhibition percent (GI %)
NCI-H226 = test: as above; type: cell-based; conditions: Homo sapiens, single dose 10 µM, 48 h, read-out: Growth inhibition percent (GI %)
A549/ATCC = test: as above; type: cell-based; conditions: Homo sapiens, single dose 10 µM, 48 h, read-out: Growth inhibition percent (GI %)
HOP-92 = test: as above; type: cell-based; conditions: Homo sapiens, single dose 10 µM, 48 h, read-out: Growth inhibition percent (GI %)
NCI-H460 = test: as above; type: cell-based; conditions: Homo sapiens, single dose 10 µM, 48 h, read-out: Growth inhibition percent (GI %)
HOP-62 = test: as above; type: cell-based; conditions: Homo sapiens, single dose 10 µM, 48 h, read-out: Growth inhibition percent (GI %)
UACC-62 = test: NCI-60 one-dose SRB screen (Melanoma); type: cell-based; conditions: Homo sapiens, single dose 10 µM, 48 h, read-out: Growth inhibition percent (GI %)
M14 = test: NCI-60 one-dose SRB screen (Melanoma); type: cell-based; conditions: Homo sapiens, single dose 10 µM, 48 h, read-out: Growth inhibition percent (GI %)
UACC-257 = test: NCI-60 one-dose SRB screen (Melanoma); type: cell-based; conditions: Homo sapiens, single dose 10 µM, 48 h, read-out: Growth inhibition percent (GI %)
MDA-MB-435 = test: NCI-60 one-dose SRB screen (Melanoma); type: cell-based; conditions: Homo sapiens, single dose 10 µM, 48 h, read-out: Growth inhibition percent (GI %)
LOX IMVI = test: NCI-60 one-dose SRB screen (Melanoma); type: cell-based; conditions: Homo sapiens, single dose 10 µM, 48 h, read-out: Growth inhibition percent (GI %)
SK-MEL-5 = test: NCI-60 one-dose SRB screen (Melanoma); type: cell-based; conditions: Homo sapiens, single dose 10 µM, 48 h, read-out: Growth inhibition percent (GI %)
MALME-3M = test: NCI-60 one-dose SRB screen (Melanoma); type: cell-based; conditions: Homo sapiens, single dose 10 µM, 48 h, read-out: Growth inhibition percent (GI %)
SK-MEL-2 = test: NCI-60 one-dose SRB screen (Melanoma); type: cell-based; conditions: Homo sapiens, single dose 10 µM, 48 h, read-out: Growth inhibition percent (GI %)
SK-MEL-28 = test: NCI-60 one-dose SRB screen (Melanoma); type: cell-based; conditions: Homo sapiens, single dose 10 µM, 48 h, read-out: Growth inhibition percent (GI %)
OVCAR-4 = test: NCI-60 one-dose SRB screen (Ovarian cancer); type: cell-based; conditions: Homo sapiens, single dose 10 µM, 48 h, read-out: Growth inhibition percent (GI %)
NCI/ADR-RES = test: NCI-60 one-dose SRB screen (Ovarian cancer); type: cell-based; conditions: Homo sapiens, single dose 10 µM, 48 h, read-out: Growth inhibition percent (GI %)
SK-OV-3 = test: NCI-60 one-dose SRB screen (Ovarian cancer); type: cell-based; conditions: Homo sapiens, single dose 10 µM, 48 h, read-out: Growth inhibition percent (GI %)
OVCAR-8 = test: NCI-60 one-dose SRB screen (Ovarian cancer); type: cell-based; conditions: Homo sapiens, single dose 10 µM, 48 h, read-out: Growth inhibition percent (GI %)
OVCAR-5 = test: NCI-60 one-dose SRB screen (Ovarian cancer); type: cell-based; conditions: Homo sapiens, single dose 10 µM, 48 h, read-out: Growth inhibition percent (GI %)
OVCAR-3 = test: NCI-60 one-dose SRB screen (Ovarian cancer); type: cell-based; conditions: Homo sapiens, single dose 10 µM, 48 h, read-out: Growth inhibition percent (GI %)
IGROV1 = test: NCI-60 one-dose SRB screen (Ovarian cancer); type: cell-based; conditions: Homo sapiens, IGROV-1, single dose 10 µM, 48 h, read-out: Growth inhibition percent (GI %)
MDA-MB-231/ATCC = test: NCI-60 one-dose SRB screen (Breast Cancer); type: cell-based; conditions: Homo sapiens, single dose 10 µM, 48 h, read-out: Growth inhibition percent (GI %)
MCF-7 = test: NCI-60 one-dose SRB screen (Breast Cancer); type: cell-based; conditions: Homo sapiens, MCF7, single dose 10 µM, 48 h, read-out: Growth inhibition percent (GI %)
HS 578T = test: NCI-60 one-dose SRB screen (Breast Cancer); type: cell-based; conditions: Homo sapiens, single dose 10 µM, 48 h, read-out: Growth inhibition percent (GI %)
MDA-MB-468 = test: NCI-60 one-dose SRB screen (Breast Cancer); type: cell-based; conditions: Homo sapiens, single dose 10 µM, 48 h, read-out: Growth inhibition percent (GI %)
hCA XII = hCA XII (Homo sapiens, UniProt O43570); test: CA inhibitory activity, spectrophotometric p-NPA assay; type: biochemical; conditions: p-NPA substrate, pH 7.5, 25 °C, triplicate; read-out: IC50 (µM) ± SD hCA XII
Chain of hCA XII (O43570 25-354): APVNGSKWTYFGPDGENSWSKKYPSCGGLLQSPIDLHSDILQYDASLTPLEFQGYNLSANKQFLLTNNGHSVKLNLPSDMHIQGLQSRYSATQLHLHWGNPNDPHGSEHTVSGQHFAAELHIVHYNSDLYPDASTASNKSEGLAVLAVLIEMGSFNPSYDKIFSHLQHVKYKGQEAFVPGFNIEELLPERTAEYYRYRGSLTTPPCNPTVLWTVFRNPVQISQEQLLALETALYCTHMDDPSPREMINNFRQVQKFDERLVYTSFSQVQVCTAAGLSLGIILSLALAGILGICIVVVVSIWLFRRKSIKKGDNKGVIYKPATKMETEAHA

PC-3 = test: NCI-60 one-dose SRB screen (Prostate Cancer); type: cell-based; conditions: Homo sapiens, single dose 10 µM, 48 h, read-out: Growth inhibition percent (GI %)
DU-145 = test: NCI-60 one-dose SRB screen (Prostate Cancer); type: cell-based; conditions: Homo sapiens, single dose 10 µM, 48 h, read-out: Growth inhibition percent (GI %)
SF-268 = test: NCI-60 one-dose SRB screen (CNS Cancer); type: cell-based; conditions: Homo sapiens, single dose 10 µM, 48 h, read-out: Growth inhibition percent (GI %)
SNB-75 = test: NCI-60 one-dose SRB screen (CNS Cancer); type: cell-based; conditions: Homo sapiens, single dose 10 µM, 48 h, read-out: Growth inhibition percent (GI %)
SF-295 = test: NCI-60 one-dose SRB screen (CNS Cancer); type: cell-based; conditions: Homo sapiens, single dose 10 µM, 48 h, read-out: Growth inhibition percent (GI %)
U251 = test: NCI-60 one-dose SRB screen (CNS Cancer); type: cell-based; conditions: Homo sapiens, U-251, single dose 10 µM, 48 h, read-out: Growth inhibition percent (GI %)
SNB-19 = test: NCI-60 one-dose SRB screen (CNS Cancer); type: cell-based; conditions: Homo sapiens, single dose 10 µM, 48 h, read-out: Growth inhibition percent (GI %)
SF-539 = test: NCI-60 one-dose SRB screen (CNS Cancer); type: cell-based; conditions: Homo sapiens, single dose 10 µM, 48 h, read-out: Growth inhibition percent (GI %)
HL-60(TB) = test: NCI-60 one-dose SRB screen (Leukemia); type: cell-based; conditions: Homo sapiens, single dose 10 µM, 48 h, read-out: Growth inhibition percent (GI %)
K-562 = test: NCI-60 one-dose SRB screen (Leukemia); type: cell-based; conditions: Homo sapiens, K562, single dose 10 µM, 48 h, read-out: Growth inhibition percent (GI %)
CCRF-CEM = test: NCI-60 one-dose SRB screen (Leukemia); type: cell-based; conditions: Homo sapiens, single dose 10 µM, 48 h, read-out: Growth inhibition percent (GI %)
RPMI-8226 = test: NCI-60 one-dose SRB screen (Leukemia); type: cell-based; conditions: Homo sapiens, single dose 10 µM, 48 h, read-out: Growth inhibition percent (GI %)
SR = test: NCI-60 one-dose SRB screen (Leukemia); type: cell-based; conditions: Homo sapiens, single dose 10 µM, 48 h, read-out: Growth inhibition percent (GI %)
MOLT-4 = test: NCI-60 one-dose SRB screen (Leukemia); type: cell-based; conditions: Homo sapiens, single dose 10 µM, 48 h, read-out: Growth inhibition percent (GI %)

## CS(=O)(=O)c1ccc(-c2nn(-c3ccc(S(N)(=O)=O)cc3)cc2C(=O)NNC(N)=S)cc1 [Compound 9e, 2-[3-(4-(Methylsulfonyl)phenyl)-1-(4-sulfamoylphenyl)-1H-pyrazole-4-carbonyl] hydrazine-1-carbothioamide]
NCI-H322M
  inhibition at 10 µM: < 5%
EKVX
  inhibition at 10 µM: < 5%
NCI-H522
  inhibition at 10 µM: 12.3%
NCI-H23
  inhibition at 10 µM: < 5%
NCI-H226
  inhibition at 10 µM: 6.39%
A549/ATCC
  inhibition at 10 µM: < 5%
HOP-92
  inhibition at 10 µM: < 5%
NCI-H460
  inhibition at 10 µM: < 5%
HOP-62
  inhibition at 10 µM: < 5%
UACC-62
  inhibition at 10 µM: 7.82%
M14
  inhibition at 10 µM: < 5%
UACC-257
  inhibition at 10 µM: 7%
MDA-MB-435
  inhibition at 10 µM: < 5%
LOX IMVI
  inhibition at 10 µM: < 5%
SK-MEL-5
  inhibition at 10 µM: < 5%
MALME-3M
  inhibition at 10 µM: < 5%
SK-MEL-2
  inhibition at 10 µM: < 5%
SK-MEL-28
  inhibition at 10 µM: < 5%
OVCAR-4
  inhibition at 10 µM: < 5%
NCI/ADR-RES
  inhibition at 10 µM: < 5%
SK-OV-3
  inhibition at 10 µM: < 5%
OVCAR-8
  inhibition at 10 µM: < 5%
OVCAR-5
  inhibition at 10 µM: < 5%
OVCAR-3
  inhibition at 10 µM: < 5%
IGROV1
  inhibition at 10 µM: < 5%
MDA-MB-231/ATCC
  inhibition at 10 µM: < 5%
MCF-7
  inhibition at 10 µM: < 5%
HS 578T
  inhibition at 10 µM: 7.37%
MDA-MB-468
  inhibition at 10 µM: 7.21%
hCA XII
  IC50: 0.929 ± 0.035 µM
PC-3
  inhibition at 10 µM: < 5%
DU-145
  inhibition at 10 µM: < 5%
SF-268
  inhibition at 10 µM: < 5%
SNB-75
  inhibition at 10 µM: 15.9%
SF-295
  inhibition at 10 µM: < 5%
U251
  inhibition at 10 µM: < 5%
SNB-19
  inhibition at 10 µM: < 5%
SF-539
  inhibition at 10 µM: < 5%
other
  melting point: 261 to 262 °C
HL-60(TB)
  inhibition at 10 µM: < 5%
K-562
  inhibition at 10 µM: < 5%
CCRF-CEM
  inhibition at 10 µM: < 5%
RPMI-8226
  inhibition at 10 µM: < 5%
SR
  inhibition at 10 µM: < 5%
MOLT-4
  inhibition at 10 µM: < 5%

## NC(=S)NNC(=O)c1cn(-c2ccc(S(N)(=O)=O)cc2)nc1-c1ccc(Br)cc1 [Compound 9d, 2-[3-(4-Bromophenyl)-1-(4-sulfamoylphenyl)-1H-pyrazole-4-carbonyl] hydrazine-1-carbothioamide]
NCI-H322M
  inhibition at 10 µM: 14.9%
EKVX
  inhibition at 10 µM: < 5%
NCI-H522
  inhibition at 10 µM: 8.15%
NCI-H23
  inhibition at 10 µM: < 5%
NCI-H226
  inhibition at 10 µM: < 5%
A549/ATCC
  inhibition at 10 µM: < 5%
HOP-92
  inhibition at 10 µM: < 5%
NCI-H460
  inhibition at 10 µM: < 5%
HOP-62
  inhibition at 10 µM: < 5%
UACC-62
  inhibition at 10 µM: < 5%
M14
  inhibition at 10 µM: < 5%
UACC-257
  inhibition at 10 µM: < 5%
MDA-MB-435
  inhibition at 10 µM: < 5%
LOX IMVI
  inhibition at 10 µM: < 5%
SK-MEL-5
  inhibition at 10 µM: < 5%
MALME-3M
  inhibition at 10 µM: 10.9%
SK-MEL-2
  inhibition at 10 µM: < 5%
SK-MEL-28
  inhibition at 10 µM: < 5%
OVCAR-4
  inhibition at 10 µM: < 5%
NCI/ADR-RES
  inhibition at 10 µM: < 5%
SK-OV-3
  inhibition at 10 µM: < 5%
OVCAR-8
  inhibition at 10 µM: < 5%
OVCAR-5
  inhibition at 10 µM: < 5%
OVCAR-3
  inhibition at 10 µM: < 5%
IGROV1
  inhibition at 10 µM: 20.2%
MDA-MB-231/ATCC
  inhibition at 10 µM: < 5%
MCF-7
  inhibition at 10 µM: < 5%
HS 578T
  inhibition at 10 µM: 6.72%
MDA-MB-468
  inhibition at 10 µM: < 5%
hCA XII
  IC50: 1.42 ± 0.053 µM
PC-3
  inhibition at 10 µM: < 5%
DU-145
  inhibition at 10 µM: < 5%
SF-268
  inhibition at 10 µM: < 5%
SNB-75
  inhibition at 10 µM: 12.1%
SF-295
  inhibition at 10 µM: < 5%
U251
  inhibition at 10 µM: < 5%
SNB-19
  inhibition at 10 µM: < 5%
SF-539
  inhibition at 10 µM: 6.59%
other
  melting point: 238 to 241 °C
HL-60(TB)
  inhibition at 10 µM: < 5%
K-562
  inhibition at 10 µM: < 5%
CCRF-CEM
  inhibition at 10 µM: < 5%
RPMI-8226
  inhibition at 10 µM: < 5%
SR
  inhibition at 10 µM: 6.97%
MOLT-4
  inhibition at 10 µM: < 5%
